# Legend:
# [1] = critical micelle formation concentration (CMC) by tensiometry; assay type: physicochemical
# Description: In aqueous systems, these amphiphilic molecules show the properties that are characteristic of standard surfactants (such as, e.g., sodium dodecylsulfate, SDS). They thus reduce the surface tension of water. By tensiometry, the so-called CMC (critical micelle formation concentration in mol/l) can be determined. In this respect, the surface tension is determined based on the concentration of the substance to be measured. The CMC can be calculated from the plot of the surface tension function (c) that is obtained. The critical micelle formation concentration of the compounds according to the invention must be <10^−3 mol/l, preferably <10^−4 mol/l.
# (§1) Both the determination of the CMC and the photon correlation spectroscopy are described in H.-D. Dörfler, “Grenzflächen- und Kolloidchemie [Interface and Colloid Chemistry],” Weinheim, New York, Basel, Cambridge, Tokyo, VSH 1994.
# [2] = hydrodynamic micelle diameter (2 Rh) by photon correlation spectroscopy (PCS); assay type: physicochemical
# From the text: The amphiphilic compounds according to the invention are combined in solution and are present as aggregates. The size (2 Rh) of such aggregates (e.g., micelles, rods, wafers, etc.) can be determined with the aid of […] (PCS).
# As a second criterion, the hydrodynamic micelle diameter 2 Rh, which must be >1 nm, is therefore used. Those perfluoroalkyl-containing metal complexes according to the invention whose 2 RH is ≧3, quite especially preferably >4 nm, are especially suitable.
# as §1
# [3] = test system: primary tumor (VX2-tumor implanted i.m.); test: tumor visualization (MRT) after intravenous administration in VX2-tumor-bearing rabbits; assay type: in vivo; conditions: 200 μmol of Gd/kg i.v.; for enhancement of the primary tumor (especially the periphery): 15 minutes p.i.
# Description: The pictures of FIG. 6 show MR images of an iliac lymph node and of a primary tumor (VX2-tumor implanted i.m.) precontrast, 60 minutes and 20 hours after intravenous administration of 100 μmol of Gd/kg of body weight of metal complex I in rabbits. […]
# myocardial infarction = test: infarction visualization (MRT) after intravenous administration in rats with acutely induced myocardial infarction; assay type: in vivo
# From the text: The successful induction of an acute myocardial infarction was confirmed by means of NBT-staining.
# [4] = organ distribution (including lymph node concentration) after intravenous administration in rats; assay type: in vivo; conditions: 24 hours after administration, 200 μmol Gd/kg i.v.
# Description: After intravenous administration of 100 μmol of total gadolinium/kg of body weight of a polar Gd-chelate with perfluorinated side chains (metal complex X) in rats, the metal content in various organs as well as in the lymph nodes (pooled as mesenteric and peripheral lymph nodes) was determined 24 hours after administration (MW, n=2).
# After intravenous administration of 200 μmol of total gadolinium/kg of body weight of a polar Gd-chelate with perfluorinated side chains (metal complex V) in rats, the metal content in various organs as well as in the lymph nodes (pooled as mesenteric and peripheral lymph nodes) was determined 24 hours after administration (MW, n=2).
# After intravenous administration of 200 μmol of total gadolinium/kg of body weight of a polar Gd-chelate with perfluorinated side chains (metal complex III) in rats, the metal content in various organs as well as in the lymph nodes (pooled as mesenteric and peripheral lymph nodes) was determined 24 hours after administration (MW, n=2).
# [5] = proton relaxivity in plasma (R^1), Minispec P 20; assay type: physicochemical; conditions: 40° C., 0.47 tesla, bovine plasma
# Description: As a third criterion, the proton-relaxivity in plasma (R^1) at 40° C. and a field strength of 0.47 tesla is used. The relaxivity, which is indicated in [l/mmol·s], is the quantitative measurement for the shortening of relaxation time T^1 of the protons. For the purpose according to the invention, the relaxivity must be as high as possible and >10 l/mmol·s, preferably >13 l/mmol·s, especially preferably >15 l/mmol·s.
# Relaxivity R^1 [l/mmol·s] of the MR-contrast media according to the invention was determined with the Minispec P 20 device of the Bruker Company. The measurements were taken at 40° C. and a field strength of 0.47 tesla. Eight measuring points were recorded by each T1-sequence: 180°-TI-90°, inversion recovery. As a medium, bovine plasma of the Kraeber Company was used. The contrast medium concentrations [mmol/l] in the batches were between 0.30 and 1.16.
# iliac lymph nodes = test: lymph node visualization (MRT) after intravenous administration in rats; assay type: in vivo; conditions: 200 μmol of Gd/kg i.v.
# Description: By way of example, the pictures in FIG. 8 show MR images of iliac lymph nodes precontrast and up to 60 minutes after intravenous administration of 100 μmol of Gd/kg of body weight of metal complex X in rats. […] The enhancement was thus 263% at the time of 15 minutes p.i. and 254% at the time of 60 minutes p.i.
# By way of example, the pictures in FIG. 11 show MR images of iliac lymph nodes precontrast and up to 60 minutes after intravenous administration of 200 μmol of Gd/kg of body weight of metal complex V in rats. […] The enhancement was thus 147% at the time of 15 minutes p.i. and 230% at the time of 60 minutes p.i.
# By way of example, the pictures in FIG. 17 show MR images of iliac lymph nodes precontrast and up to 60 minutes after intravenous administration of 200 μmol of Gd/kg of body weight of metal complex III in rats. […] The enhancement was thus 320% at the time of 15 minutes p.i. and 401% at the time of 60 minutes p.i.
smiles,measurement,setting,value
O=C([O-])CN1CCN(CC(=O)[O-])CCN(CC(O)CNC(=O)CCCC(=O)N2CCN(C(F)(F)C(F)(F)C(F)(F)C(F)(F)C(F)(F)C(F)(F)C(F)(F)C(F)(F)F)CC2)CCN(CC(=O)[O-])CC1.[Gd+3] (stereo not drawn) [metal complex III],CMC (critical micelle formation concentration),[1],7.06e-06 mol/L
same,2 Rh (hydrodynamic micelle diameter),[2],3.2 nm
same,enhancement of the primary tumor (especially the periphery),[3],232%
same,signal in the infarction area (T1-weighted spin-echo images),myocardial infarction; 22 hours after i.v. 100 μmol of Gd/kg,strong signal rise
same,metal content,[4]; Blood,83 μmol Gd/L
same,"metal content, % Dose",[4]; Blood,1.15 % Dose
same,metal content,[4]; Brain,10 μmol Gd/L
same,"metal content, % Dose",[4]; Brain,0.05 % Dose
same,metal content,[4]; Carcass,242 μmol Gd/L
same,"metal content, % Dose",[4]; Carcass,36.30 % Dose
same,metal content,[4]; Femur,76 μmol Gd/L
same,"metal content, % Dose",[4]; Femur,0.32 % Dose
same,metal content,[4]; Heart,82 μmol Gd/L
same,"metal content, % Dose",[4]; Heart,0.13 % Dose
same,metal content,[4]; Intestine,230 μmol Gd/L
same,"metal content, % Dose",[4]; Intestine,3.56 % Dose
same,metal content,[4]; Kidneys,489 μmol Gd/L
same,"metal content, % Dose",[4]; Kidneys,1.97 % Dose
same,metal content,[4]; Liver,1222 μmol Gd/L
same,"metal content, % Dose",[4]; Liver,26.28 % Dose
same,metal content,[4]; Lung,338 μmol Gd/L
same,"metal content, % Dose",[4]; Lung,0.96 % Dose
same,metal content,[4]; Mesenteric lymph nodes,455 μmol Gd/L
same,"metal content, % Dose",[4]; Mesenteric lymph nodes,0.33 % Dose
same,metal content,[4]; Muscle,28 μmol Gd/L
same,"metal content, % Dose",[4]; Muscle,0.04 % Dose
same,metal content,[4]; Pancreas,203 μmol Gd/L
same,"metal content, % Dose",[4]; Pancreas,0.48 % Dose
same,metal content,[4]; Peripheral lymph nodes,279 μmol Gd/L
same,"metal content, % Dose",[4]; Peripheral lymph nodes,0.18 % Dose
same,metal content,[4]; Spleen,464 μmol Gd/L
same,"metal content, % Dose",[4]; Spleen,0.89 % Dose
same,metal content,[4]; Stomach,165 μmol Gd/L
same,"metal content, % Dose",[4]; Stomach,0.57 % Dose
same,"metal content, % Dose",[4]; Total,73.20 % Dose
same,R^1 Plasma (relaxivity),[5],24.9 mmol⁻¹ s⁻¹
same,enhancement in lymph node tissue,iliac lymph nodes; 15 minutes p.i.,320%
same,enhancement in lymph node tissue,iliac lymph nodes; 60 minutes p.i.,401%
same,signal in healthy lymph node tissue (T1-weighted gradient-echo images),iliac lymph nodes; very shortly after injection,strong signal rise
"CC(C(=O)NCC(=O)NCC(=O)N1CCN(C(=O)CNC(=O)CNC(=O)C(C)N2CCN(CC(=O)[O-])CCN(CC(=O)[O-])CCN(CC(=O)[O-])CC2)CCN(C(=O)COCCC(F)(F)C(F)(F)C(F)(F)C(F)(F)C(F)(F)C(F)(F)C(F)(F)C(F)(F)F)CCN(C(=O)CNC(=O)CNC(=O)C(C)N2CCN(CC(=O)[O-])CCN(CC(=O)[O-])CCN(CC(=O)[O-])CC2)CC1)N1CCN(CC(=O)[O-])CCN(CC(=O)[O-])CCN(CC(=O)[O-])CC1.[Gd+3].[Gd+3].[Gd+3] (stereo not drawn) [metal complex XIV, 1,4,7-Tris{1,4,7-tris(N-(carboxylatomethyl)-10-[N-1-methyl-3,6-diaza-2,5,8-trioxooctane-1,8-diyl]-1,4,7,10-tetraazacyclododecane, Gdcomplex}-10-N-2H,2H,4H,4H,5H,5H-3-oxa-perfluoro-tridecanoyl]-1,4,7,10-tetraazacyclo-dodecane, Gd complex]",CMC (critical micelle formation concentration),[1],0.00089 mol/L
same,2 Rh (hydrodynamic micelle diameter),[2],2.2 nm
same,enhancement of the primary tumor (especially the periphery),[3],594%
same,enhancement of the primary tumor (center of the tumor),[3]; 120 hours p.i.,162%
same,signal in the infarction area (T1-weighted spin-echo images),myocardial infarction; 3 hours after i.v. 100 μmol of Gd/kg,strong signal rise
same,R^1 Plasma (relaxivity),[5],19.5 mmol⁻¹ s⁻¹
